Data set [1] in a line: Stability in mouse brain homogenate. The format is in vitro ADME, male CD-1 mice. As to conditions: mouse brain homogenate, 1 μM, 37° C.; for half-life at 1 µM: male, CD-1.
The target in data set [2] is T1, 5-HT1A (Homo sapiens, UniProt P08908).
T1 construct: host or cells: CHO cells
T1 sequence (P08908 1-422): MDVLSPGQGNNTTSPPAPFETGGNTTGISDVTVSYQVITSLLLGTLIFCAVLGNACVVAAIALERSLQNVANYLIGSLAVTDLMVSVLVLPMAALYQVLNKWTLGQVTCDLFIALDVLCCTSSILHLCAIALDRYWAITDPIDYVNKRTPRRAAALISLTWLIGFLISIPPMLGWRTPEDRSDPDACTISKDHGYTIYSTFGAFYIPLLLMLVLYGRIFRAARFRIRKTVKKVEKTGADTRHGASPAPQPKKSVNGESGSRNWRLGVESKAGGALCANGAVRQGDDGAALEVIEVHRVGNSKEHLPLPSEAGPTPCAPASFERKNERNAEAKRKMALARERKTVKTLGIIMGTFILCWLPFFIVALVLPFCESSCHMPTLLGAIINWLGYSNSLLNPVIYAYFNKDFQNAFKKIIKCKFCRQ
Description: FLIPR Ca2+ flux agonist assay at 5-HT1A. The format is cell-based. As to conditions: for 5-HT1A % Act @ Max Dose: Ca2+ flux, CHO cells.

Data set [3] in a line: Plasma pharmacokinetics in rats after intravenous administration. Conditions: for AUC(0-t) / C0 / half-life: male, Sprague Dawley, rat, plasma, iv, 1 mg/kg.
Data set [4] can be described thus: Metabolic stability in human liver microsomes (HLM). The arrangement: microsomal CLint / half-life: dose or concentration left out as unconfirmed. As to conditions: for half-life / microsomal CLint: both, human, pooled human liver microsomes, pH 7.4.
A short description of data set [5]: Stability in rat brain homogenate. The format is in vitro ADME, male Sprague Dawley rats. Conditions: rat brain homogenate, 1 μM, 37° C.; for half-life at 1 µM: male, Sprague Dawley.
The subject of data set [6] is monoamine oxidase A and B (MAO-A and MAO-B). Description: Stability in the presence of monoamine oxidases (human liver mitochondria preparation). The arrangement: half-life / microsomal CLint: dose or concentration left out as unconfirmed. As to conditions: for stability in the presence of MAO (in words): human liver mitochondria preparation; for Remaining (t = 60 min) / half-life / microsomal CLint: human liver mitochondria; for half-life / microsomal CLint: human, pH 7.4. As to the method:
Liver Mitochondria Incubations. Human liver mitochondria (Xenotech H0610.M) were used.

Data set [7] has as its system rat synaptosomes. Description: Serotonin (5-HT) release from rat synaptosomes. Conditions: for EC50: rat synaptosomes preloaded with [3H]5-HT; for % Release @ Max Dose (10 μM) / 5-HT release potency/efficacy compared with analog (in words): rat synaptosomes. The format is biochemical, Male Sprague-Dawley rats. The procedure: Disclosed compounds were assessed for their ability to release serotonin (5-HT) from […] (Table 9). Potency and efficacy for 5-HT release varied substantially depending on the specific compound. […] However, there was also substantial variability among 4-hydroxy compounds.
Synaptosome 5-HT Release Assay. Synaptosome release assays were conducted according to modifications of previously described procedures (Partilla et al. (2016). Interrogating the Activity of Ligands at Monoamine Transporters in Rat Brain Synaptosomes. In Neurotransmitter Transporters (pp. 41-52). Springer.). Briefly, synaptosomes were prepared from rat brains. Male Sprague-Dawley rats were rendered unconscious with CO2 and their brains were immediately removed. The cerebella were discarded and the whole brains (minus striatum) were placed in ice-cold 0.32 M sucrose (10 mL per brain) and gently homogenized by hand. The homogenate of each brain was centrifuged at 1,000×g at 4° C. for 10 mins and the resulting supernatant was diluted with ice-cold 0.32 M sucrose to a total volume of 10 mL to provide the synaptosome solution. Synaptosomes were then preloaded with 5 nM [^3H]5-HT in the presence of selective uptake inhibitors of DAT (50 nM GBR12935), NET (100 nM nomifensine), and VMAT2 (1 μM reserpine) in Krebs phosphate buffer (KPB). The incubations were allowed to reach equilibrium for 2 h at 25° C. For the release reactions, 425 μL of preloaded synaptosomes were added to test tubes containing 75 μL of test drugs diluted in KPB containing 1 mg/mL BSA. After 10 mins, the release reaction was stopped using a cell harvester by rapid vacuum filtration over GF/B filter paper presoaked in wash buffer (10 mM Tris-HCl, pH 7.4, 150 mM NaCl) and the filters were washed with additional wash buffer. Filters were dried for 1 h at 60° C. and retained radioactivity was quantified using a MicroBeta 2 liquid scintillation counter. The amount of retained radioactivity was inversely proportional to the extent of release.

Setting [8] is: human liver mitochondria 0.30 mg protein/mL, 37° C.

Regarding `CN(C)CCc1c[nH]c2ccc(F)cc12` [Compound 5-F-DMT, reference compound], in data set [1], the t1/2 is on record as 3.1 min and the “% Compound Remaining (after 120 min)” value worked out at 0.0%. Besides, in data set [2], a half-maximal effect (EC50) was put at 5.72 µM and the “5-HT1A % Act @ Max Dose” value is recorded as 72.9%. In data set [3], this molecule showed an AUC(0-t) of 35.5 ng·h/mL, a C0 of 338 ng/mL and a half-life of 4.8 min. Also, the “plasma half-life (in words)” value in data set [3] (rats, IV 1 mg/kg) is reported as “very short half-lives”. Further, the “t1/2” value in data set [4] (HLM 0.50 mg protein/mL, NADPH, 37° C., 60 minutes) was determined as 4.6 min. In data set [5], the t1/2 is recorded as 2.7 min and the “% Compound Remaining (after 120 min)” value is reported as 0.0%. In addition, in data set [6] (setting [8]), the “CLint(MAO)” value is 266 µL/min/mg and the t1/2 was determined as 8.7 min. In data set [6], the “stability in the presence of MAO (in words)” value (“stability in the presence” for short) is “rapidly metabolized by MAO” and the “Remaining (t = 60 min)” value turned out to be 0.9%. For the same molecule, in data set [7], the EC50 was determined as 0.0407 µM and the “% Release @ Max Dose (10 μM)” value turned out to be 81.44%.
Take `CCNCCc1c[nH]c2ccc(F)c(O)c12` [Compound 28, 3-(2-(ethylamino)ethyl)-5-fluoro-1H-indol-4-ol]: in data set [1], the half-life at 1 µM amounted to 22.1 min and the “% Compound Remaining (after 120 min)” value was determined as 1.9%. Moreover, in data set [2], the concentration giving a half-maximal response (EC50) was 9.21 µM and the “5-HT1A % Act @ Max Dose” value worked out at 60.29%. For the same molecule, in data set [3], the exposure AUC(0-t) was determined as 86.7 ng·h/mL, the C0 amounted to 249 ng/mL and the half-life was 27.6 min. Also, in data set [4], the half-life is 42.3 min and the microsomal CLint was determined as 32.8 µL/min/mg. Also, in data set [5], the half-life at 1 µM amounted to 15.4 min and the “% Compound Remaining (after 120 min)” value worked out at 0.4%. Moreover, in data set [6], the “stability in the presence” value was “intermediate stability”, the “Remaining (t = 60 min)” value is listed as 46.4%, the half-life was 56.5 min and the microsomal CLint amounted to 40.9 µL/min/mg. In data set [7], the “5-HT release potency/efficacy compared with analog (in words)” value is “significantly more potent and efficacious than their non-fluorinated analogs”; the midpoint of the response, the EC50, lay at 0.708 µM; the “% Release @ Max Dose (10 μM)” value was determined as 73.6%.
On to `CC(C)NCCc1c[nH]c2ccc(F)c(O)c12` [Compound 35, 5-fluoro-3-(2-(isopropylamino)ethyl)-1H-indol-4-ol], for which, in data set [1], the half-life at 1 µM was 90.5 min and the “% Compound Remaining (after 120 min)” value is reported as 40%. Further, in data set [2], the EC50 was 93.8 µM and the “5-HT1A % Act @ Max Dose” value is 48.74%. In data set [3], this molecule showed an exposure AUC(0-t) of 126 ng·h/mL, a C0 of 348 ng/mL and a half-life of 26.4 min. Further, in data set [4], the half-life turned out to be 45.7 min and the intrinsic metabolic clearance (microsomal CLint) was determined as 30.3 µL/min/mg. Also, in data set [5], the half-life at 1 µM was 45.6 min and the “% Compound Remaining (after 120 min)” value was found to be 16.4%. Moreover, in data set [6], the “stability in the presence” value was “intermediate stability”, the “Remaining (t = 60 min)” value was 22.8%, the half-life was found to be 29 min and the intrinsic metabolic clearance (microsomal CLint) worked out at 79.6 µL/min/mg. In data set [7], the “5-HT release potency/efficacy compared with analog (in words)” value was “significantly more potent and efficacious than their non-fluorinated analogs”; the response was half-maximal at 6.94 µM (EC50); the “% Release @ Max Dose (10 μM)” value is listed as 53.2%.

Values taken from patent publication US20260234107A1, “TRYPTAMINES AND METHODS OF TREATING MOOD DISORDERS” (priority 2022, published 2026).
